# Tests used:
# [1] = Encrustation assay in artificial urine without bacteria; details: two separate experiments (Table 3)
# Procedure: Artificial urine solutions contained either:
# The coatings were analyzed for encrustation.
# In addition, both the Wet 1 and Dry POC coatings were analyzed for encrustation using the same procedure described previously.
# [2] = Osteopontin elution assay (ELISA); assay type: physicochemical; details: 1X PBS, 37° C.
# Procedure: Osteopontin Elution Assay
# To determine the amount of osteopontin released, coated Parylene™ coated discs were placed in 2 mL of 1×PBS for up to 30 days. The buffer was exchanged at approximately 30 minutes, 1 hour, 1 day, 5 days, 10 days, 15 days, and 30 days. Eluted samples were refrigerated until assaying. Osteopontin was quantified using an Osteopontin ELISA kit (R &D Systems, Mpls, MN) following the kit's instructions.
# Sample discs coated with either osteopontin loaded PLGA coatings or empty PLGA coatings were placed in 1×PBS for elution over 30 days at 37° C., with the elution buffer exchanged at days 1, 5, 10, 15, and 30.
# Total release per disc was 0.3 ng osteopontin released over 30 days (6-mg PLGA coating/3 ng osteopontin loading per disc).
molecule,measurement,setting,value
O=C(O)CC(O)(CC(=O)O)C(=O)O [citric acid],Reduction of encrustation compared to control empty PLGA,[1],26-48%
same,Reduction of encrustation compared to uncoated,[1],up to 66%
"osteopontin: human osteopontin (R&D Systems), sialoprotein; in b151 it is released from the osteopontin-loaded PLGA coating",Osteopontin release period,[2]; 30 days,released over the entire 30-day period
same,Total osteopontin release per disc,"[2]; over 30 days, 6-mg PLGA coating/3 ng osteopontin loading per disc",0.3 ng

# Source: US10744233B2, “Crystallization inhibitor compositions for implantable urological devices” (Innovative Surface Technologies, Inc., priority 2016, dated 2020)
